{
  "source": "PubChem BioAssay AID2043",
  "about": "(NMMLSC, 2009)",
  "note": "Active and inactive are the calls of the source. How the calls were made is not given here.",
  "data": [
    {"target": "GTPase HRas, activated mutant (human)", "test": "inhibitors of GTP binding, activated Ras, SAR follow-up, biochemical, additional analogs, activated mutant, multiplex flow cytometry, Ki (AID 2043)", "conditions": "bead-based flow cytometry multiplex, fluorescent GTP binding", "values": [
      {"compound": "CC(C(=O)O)c1cccc(C(=O)c2ccccc2)c1", "note": "(stereo unspecified)", "EC50": "inactive"},
      {"compound": "O=C(C#Cc1ccccc1)c1ccccc1[N+](=O)[O-]", "EC50": "inactive"},
      {"compound": "O=C(C#Cc1ccccc1)c1ccc(F)cc1", "EC50": "inactive"}
    ]},
    {"target": "GTPase HRas, activated mutant (human)", "test": "inhibitors of GTP binding, activated Ras, SAR follow-up, biochemical, additional analogs, activated mutant, multiplex flow cytometry, Ki (AID 2043)", "conditions": "bead-based flow cytometry multiplex, fluorescent GTP binding; measured here: Ki derived from EC50", "units": {"Ki": "nM"}, "values": [
      {"compound": "CC(C(=O)O)c1cccc(C(=O)c2ccccc2)c1", "note": "(stereo unspecified)", "Ki": 30},
      {"compound": "O=C(C#Cc1ccccc1)c1ccccc1[N+](=O)[O-]", "Ki": 560},
      {"compound": "O=C(C#Cc1ccccc1)c1ccc(F)cc1", "Ki": 1340}
    ]}
  ]
}
